According to patent publication US9346820B2, “HIV-1 protease inhibitors having gem-di-fluoro bicyclic P2-ligands” (priority 2013, dated 2016):
Values joined by “and” are separate entries in the source; they are usually repeats but may differ in a detail not shown here. Identical values can stand only once. Like-named read-outs stand apart in the source and are kept apart here.

What was measured:
HIV-1GRL04810^RP18 = experiment: microbe, parasite or virus in culture; type: cell-based; settings: for EC50: Human immunodeficiency virus 1, MT4, read-out: EC50 HIV-1GRL04810^RP18; for fold change of EC50 HIV-1GRL04810^RP18 vs HIV-1NL4-3: number in parentheses
Method: (§1) The susceptibility of HIV-1LAI to various drugs was determined as previously described with minor modifications. Briefly, MT-2 cells (10^4/ml) were exposed to 100 50% tissue culture infectious doses (TCID50) of HIV-1LAI in the presence or absence of various concentrations of drugs in 96-well microculture plates and were incubated at 37° C. for 7 days. After 100 μl of the medium was removed from each well, 3-(4,5-dimetylthiazol-2-yl)-2,5-diphenyltetrazolium bromide (MTT) solution (10 μl, 7.5 mg/ml in phosphate-buffered saline) was added to each well in the plate, followed by incubation at 37° C. for 2 h. […] All assays were performed in duplicate or triplicate. […] To determine the sensitivity of primary HIV-1 isolates to drugs, phytohemagglutinin-stimulated peripheral blood mononuclear cells (PHA-PBMC) (10^6/ml) were exposed to 50 TCID50 of each primary HIV-1 isolate and cultured in the presence or absence of various concentrations of drugs in 10-fold serial dilutions in 96-well microculture plates. In determining the drug susceptibility of certain laboratory HIV-1 strains, MT-4 cells were employed as target cells as previously described with minor modifications. In brief, MT-4 cells (10^5/ml) were exposed to 100 TCID50 of drug-resistant HIV-1 strains in the presence or absence of various concentrations of drugs and were incubated at 37° C. On day 7 of culture, the supernatants were harvested and the amounts of p24 Gag protein were determined by using a fully automated chemiluminescent enzyme immunoassay system (Lumipulse F: Fujirebio Inc., Tokyo). […] All assays were performed in duplicate or triplicate. PHA-PBMs were derived from a single donor in each independent experiment. Thus, for obtaining the data, three different donors were recruited.
(§2) The amounts of p24 were measured every two days for up to 7 days.

HIV-1GRL05010^RP10 = experiment: microbe, parasite or virus in culture; type: cell-based; settings: for EC50: Human immunodeficiency virus 1, MT4, read-out: EC50 HIV-1GRL05010^RP10; for fold change of EC50 HIV-1GRL05010^RP10 vs HIV-1NL4-3: number in parentheses
Method: as §1, §2

[1] = Partition and distribution coefficients, shake-flask method; type: physicochemical; settings: for Concentration in octanol^(b): n-octanol used for logD assay; for Concentration in octanol^(a): n-octanol used for logPOW determination; for Log DOct/Tris pH 7.40: pH 7.4; for Concentration in tris buffer / Concentration in water: shake flask, 100 μM, 230 nm
Method: On day −1 of the experimental setting, saturation of 1-octanol (CH3 (CH2)6CH2OH) (Nacalai Tesque, Kyoto, Japan) water and tris-buffered saline (10X working solution 20 mM Tris, pH 7.4 and 0.9% NaCl, Sigma-Aldrich, St. Louis, Mo.) took place. Four different flasks were used: One containing 50 ml of water plus 100 ml of 1-octanol, the second flask contained 1-octanol saturated with water adding 50 ml of 1-octanol and 100 ml of water. The same ratios and volumes were kept for 1-octanol saturated with tris-buffer and tris-buffer saturated with 1-octanol. The flasks were sealed and placed into a room temperature bio shaker for 24 hours at 90 revolutions per minute. […] Successive dilutions were made to obtain concentrations of 10 μM, 1 μM and 0.1 μM. A standard curve was generated on a light spectrophotometer (DU Series 700, Beckman Coulter Fullerton, Calif.) at 230 nanometer absorbances.
On day 1 of the experiment, the lipid and liquid interfaces were separated, and compounds were diluted again from 20 mM DMSO to 100 μM using the 1-octanol, water and Tris-buffered saline obtained from the shake-flask assay. The resulting diluted compounds were then added to separate serum tubes containing equal proportions of 1-octanol and water, and 1-octanol and Tris-buffered saline. The solution was handshaken for 5 minutes and then centrifuged at 3,500 rpm and room temperature for 20 minutes. Finally, the compounds were recovered from the 1-octanol, Tris-buffer and water interfaces and then measured on a light spectrophotometer.
The values for logP and logD were obtained by applying the following mathematical formulas: […]
The addition of fluorine atoms is generally expected to confer greater lipophilicity on nucleoside analogs and certain compounds (37-39). […] 1-Octanol, organic alcohol, and water were used for logP determination, while tris-buffered saline (pH 7.4) and water were utilized for logD determination. Prior to obtaining the actual values, a standard curve was generated as a reference and drug concentrations attained for each compartment (1-octanol, water and tris-buffered saline) were measured on a light spectrophotometer (at 230 nanometer absorbance) as previously described by Rak et al. (40).
DRV was used as a control. N-octanol, an organic alcohol, and water were used for logP determination, while tris buffer and water were utilized for the logD assay. Prior to the retrieval of actual values a standard curve was generated as a reference. The drug concentrations for each compartment (octanol, water and tris buffer) were measured at 230 nanometer absorbances using a light spectrophotometer. Assay was performed following the OECD guidelines for testing of chemicals “Partition coefficient (n-octanol-water): shake flask method”, adopted by the council on 27 Jul. 1995.^(a) n-octanol used for logPOW determination;^(b) n-octanol used for logD assay. The formulas

HIV-1LAI = experiment: Antiviral activity of brain-side medium from the BBB assay, MTT assay in MT-2 cells; type: cell-based
Method: The “brain-side” of the medium containing a compound collected in the BBB in vitro assay, was subjected to antiviral assays. Two HIV-1 isolates were employed, HIV-1LAI (Panel A) and HIV-1ERS104pre (Panel B). […] Dilution ranges were between 10-fold and 10,000-fold, and the percentage of viral inhibition was used as an endpoint. […] Assays were conducted in duplicate and error bars show standard deviations.
The assay was carried out using 10, 100, 1000 and 10000 times-diluted brain-side stocks of compounds.

[2] = 10-fold diluted brain-side medium
[3] = 100-fold diluted brain-side medium

SMILES	EC50 (HIV-1GRL04810^RP18)	fold change of EC50 HIV-1GRL04810^RP18 vs HIV-1NL4-3 (HIV-1GRL04810^RP18)	EC50 (HIV-1GRL05010^RP10)	fold change of EC50 HIV-1GRL05010^RP10 vs HIV-1NL4-3 (HIV-1GRL05010^RP10)	Log POW (Octanol/Water) ([1]; shake flask method)	suppression of HIV-1LAI replication (HIV-1LAI; [2])	suppression of HIV-1LAI replication (HIV-1LAI; [3])	Log POW (Octanol/Water) [1]	Concentration in octanol^(b) [1]	Concentration in octanol^(a) [1]	Log DOct/Tris pH 7.40 [1]	Concentration in tris buffer [1]	Concentration in water [1]	suppression levels of brain-side preparations compared (FIG. 5A) (HIV-1LAI; HIV-1LAI)
COC(=O)N[C@H](C(=O)N[C@@H](Cc1ccccc1)[C@@H](O)CN(Cc1ccc(-c2ccccn2)cc1)NC(=O)[C@@H](NC(=O)OC)C(C)(C)C)C(C)(C)C [ATV, Atazanavir]	325 nM	81 fold	95 nM	24 fold										
CC(C)CN(C[C@@H](O)[C@H](Cc1ccccc1)NC(=O)O[C@H]1CO[C@H]2OCC[C@H]21)S(=O)(=O)c1ccc(N)cc1 [DRV, darunavir]	41 nM		37 nM		−0.63									
CC(C)CN(C[C@@H](O)[C@H](Cc1ccccc1)NC(=O)O[C@H]1CO[C@H]2OCC(F)(F)[C@H]21)S(=O)(=O)c1ccc(N)cc1 [GRL-05010]	39 nM	13 fold	36 nM	10 fold		91%	73%	−0.83	14.09 µM	18.70 µM	−1.01	49.84 µM	94.55 µM	
COc1ccc(S(=O)(=O)N(CC(C)C)C[C@@H](O)[C@H](Cc2ccccc2)NC(=O)OC2CO[C@H]3OCC(F)(F)[C@@H]23)cc1 (stereo partly drawn) [GRL-04810]	33 nM	66 fold	29 nM	58 fold		94%	45%	−0.14	72 µM and 72.00 µM	70.00 µM	−0.29	42.32 µM	99.78 µM	
CC(C)(C)NC(=O)[C@@H]1C[C@@H]2CCCC[C@@H]2CN1C[C@@H](O)[C@H](Cc1ccccc1)NC(=O)[C@H](CC(N)=O)NC(=O)c1ccc2ccccc2n1 [SQV, Saquinavir]	32 nM	1 fold	36 nM	1 fold										less than those of GRL-04810^brain and GRL-05010^brain
